Laboratory results taken from ChEMBL document CHEMBL1147797, “Construction of human ghrelin receptor (hGHS-R1a) model using a fragmental prediction approach and validation through docking analysis” (J Med Chem, 2006).

Molecular target: Growth hormone secretagogue receptor type 1 (Homo sapiens, UniProt Q92847)
Assay: Activity at human GHS-R1a receptor in rat pituitary cells assessed as GH release
Type: cell-based, Pituitary gland cell

Sequence of Growth hormone secretagogue receptor type 1 (Q92847 whole entry): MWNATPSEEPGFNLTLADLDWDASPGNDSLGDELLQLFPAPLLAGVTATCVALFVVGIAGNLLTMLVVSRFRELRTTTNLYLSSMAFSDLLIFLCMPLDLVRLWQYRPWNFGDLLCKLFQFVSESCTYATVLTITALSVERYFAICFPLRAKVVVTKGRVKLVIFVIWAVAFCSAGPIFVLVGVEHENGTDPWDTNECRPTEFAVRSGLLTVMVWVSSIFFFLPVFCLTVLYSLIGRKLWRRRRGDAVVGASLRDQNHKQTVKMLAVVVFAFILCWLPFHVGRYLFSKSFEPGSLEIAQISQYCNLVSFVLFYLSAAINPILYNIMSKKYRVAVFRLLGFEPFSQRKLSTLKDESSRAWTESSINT

Structure (SMILES) | EC50
CC(C)(N)C(=O)N[C@H](CCCc1ccccc1)C(=O)N1CCC2(CC1)CSc1ccccc12 | 4.8 nM
CC(C)(N)C(=O)N[C@H](Cc1c[nH]c2ccccc12)C(=O)N1CCC2(CC1)CSc1ccccc12 | 5.6 nM
CC(C)(N)C(=O)N[C@H](Cc1c[nH]c2ccccc12)C(=O)N1CCC2(CC1)CS(=O)(=O)c1ccccc12 | 2.1 nM
CC(C)(N)C(=O)N[C@H](COCc1ccccc1)C(=O)N1CCC2(CC1)CSc1ccccc12 | 10 nM
CC(C)(N)C(=O)N[C@H](COCc1ccccc1)C(=O)N1CCC2(CC1)C[S+]([O-])c1ccccc12 (stereo partly drawn) | 8.5 nM
CC(C)(N)C(=O)N[C@H](CCCc1ccccc1)C(=O)N1CCC2(CC1)C[S+]([O-])c1ccccc12 (stereo partly drawn) | 2.5 nM
CC(C)(N)C(=O)N[C@H](CCCc1ccccc1)C(=O)N1CCC2(CC1)CS(=O)(=O)c1ccccc12 | 1.1 nM
CC(C)(N)C(=O)N[C@H](CCCc1ccccc1)C(=O)N1CCC2(CC1)COc1ccccc12 | 2.7 nM
CC(C)(N)C(=O)N[C@H](COCc1ccccc1)C(=O)N1CCC2(CC1)COc1ccccc12 | 8.5 nM
CC(C)(N)C(=O)N[C@H](CCc1ccccc1)C(=O)N1CCC2(CC1)CS(=O)(=O)c1ccccc12 | 6 nM
CC(C)(N)C(=O)N[C@H](CCc1ccccc1)C(=O)N1CCC2(CC1)CSc1ccccc12 | 57 nM
CC(C)(N)C(=O)N[C@H](COCc1ccccc1)C(=O)N1CCC2(CC1)CS(=O)(=O)c1ccccc12 | 5 nM
CC(C)(N)C(=O)N[C@H](Cc1c[nH]c2ccccc12)C(=O)N1CCC2(CC1)C[C@@H](O)c1ccccc12 | 0.6 nM
CNC(C)(C)C/C=C/C(=O)N(C)[C@H](Cc1ccc2ccccc2c1)C(=O)N(C)Cc1ccccc1 | 3 nM
CCN1N=C2CCN(C(=O)[C@@H](COCc3ccccc3)NC(=O)C(C)(C)N)C[C@]2(Cc2ccccc2)C1=O | 4 nM
CN1N=C2CCN(C(=O)[C@@H](COCc3ccccc3)NC(=O)C(C)(C)N)C[C@]2(Cc2ccccc2)C1=O | 3 nM
CCNC(=O)[C@@]1(Cc2ccccc2)CCCN(C(=O)[C@@H](Cc2c[nH]c3ccccc23)NC(=O)C(C)(C)N)C1 | 0.8 nM

Structure (SMILES) | EC50
CC(C)(N)C(=O)N[C@H](CCCc1ccccc1)C(=O)N1CCC2(CCc3ccccc32)CC1 | 10 nM
CC(C)(N)C(=O)N[C@@H]1CCc2ccccc2N(Cc2ccc(-c3ccccc3CNC(=O)NCCO)cc2)C1=O | 2 nM
CCNC(=O)NCc1ccccc1-c1ccc(CN2C(=O)[C@H](NC(=O)C(C)(C)N)CCc3ccccc32)cc1 | 6 nM
CNC(C)(C)C/C=C/C(=O)N(C)[C@H](Cc1ccc2ccccc2c1)C(=O)N(C)CCc1ccccc1OCCO | 5 nM
CNC(C)(C)C/C=C/C(=O)N(C)[C@H](Cc1ccc2ccccc2c1)C(=O)N(C)CCc1cccs1 | 0.8 nM
CN(CCc1cccs1)C(=O)[C@@H](Cc1ccc(-c2ccccc2)cc1)N(C)C(=O)/C=C/CC(C)(C)N | 5 nM
CN(CCc1ccccc1NS(C)(=O)=O)C(=O)[C@@H](Cc1ccc2ccccc2c1)N(C)C(=O)/C=C/CC(C)(C)N | 18 nM
CC(C)(N)C(=O)N[C@H](COCc1ccccc1)C(=O)N1CCC2=NNC(=O)[C@@]2(Cc2ccccc2)C1 | 3 nM
CN(CCc1cccs1)C(=O)[C@@H](Cc1ccc2ccccc2c1)N(C)C(=O)/C=C/CC(C)(C)N | 7.5 nM
CC(C)(N)C(=O)N[C@H](COCc1ccccc1)C(=O)N1CCC2(CCc3ccccc32)CC1 | 17 nM
CCOC(=O)[C@@]1(Cc2ccccc2)CCCN(C(=O)[C@@H](Cc2c[nH]c3ccccc23)NC(=O)C(C)(C)N)C1 | 1.6 nM
CN(CCc1ccccc1OCCO)C(=O)[C@@H](Cc1ccc2ccccc2c1)N(C)C(=O)/C=C/CC(C)(C)N | 5 nM
CNC(=O)NCc1ccccc1-c1ccc(CN2C(=O)[C@H](NC(=O)C(C)(C)N)CCc3ccccc32)cc1 | 1 nM
CC(C)(N)C(=O)N[C@H](CCc1ccccc1)C(=O)N1CCC2(CCc3ccccc32)CC1 | 22 nM
CC(C)(N)C(=O)N[C@H](Cc1c[nH]c2ccccc12)C(=O)N1CCC2(CCc3ccccc32)CC1 [L-162752] | 14 nM
CNC(=O)[C@@H](Cc1ccccc1)N(C)C(=O)[C@@H](Cc1ccc2ccccc2c1)N(C)C(=O)/C=C/CC(C)(C)N [TABIMORELIN] | 3 nM
